Data published in patent US20170334899A1, “AMINO-SUBSTITUTED ISOTHIAZOLES” (Bayer Pharma Aktiengesellschaft, priority 2014, published 2017).
pIC50: −log10 of the molar value. Where “and” joins values, the source holds several entries; their conditions need not be identical. Identical values can stand only once.

Legend:
[1] = test system: human cervical tumor cell line HeLa (ATCC CCL-2); assay: SAC-Formation - Nocodazole-Induced Assay; type: cell-based; settings: Homo sapiens, HeLa, 24 h, HeLa cells, nocodazole 0.1 μg/ml together with test compound, decrease of mitotic cells (phospho-histone H3 Ser10)
How it was run: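 HeLa cells, plated overnight, were treated 24 h at 37 °C with nocodazole (0.1 μg/ml final) plus test compound (0.005–20 μM, 0.5% DMSO) added at the same time. After fixation, anti-phospho-histone H3 Ser10 and Hoechst staining gave the mitotic cell fraction by imaging. Values came from four-parameter Hill fits.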

[2] = molecular target: T1, catalytic domain of human Bub1 (amino acids 704-1085) (Homo sapiens, UniProt O43683); assay: Bub1 kinase assay (TR-FRET); type: biochemical; settings: 10 μM ATP, avg, read-out: Bub1 avg (IC50 [mol/l])
T1 construct: catalytic domain of human Bub1 (amino acids 704-1085); His6 (N); made in house; host or cells: insect cells (Hi5)
T1 sequence (O43683 704-1085): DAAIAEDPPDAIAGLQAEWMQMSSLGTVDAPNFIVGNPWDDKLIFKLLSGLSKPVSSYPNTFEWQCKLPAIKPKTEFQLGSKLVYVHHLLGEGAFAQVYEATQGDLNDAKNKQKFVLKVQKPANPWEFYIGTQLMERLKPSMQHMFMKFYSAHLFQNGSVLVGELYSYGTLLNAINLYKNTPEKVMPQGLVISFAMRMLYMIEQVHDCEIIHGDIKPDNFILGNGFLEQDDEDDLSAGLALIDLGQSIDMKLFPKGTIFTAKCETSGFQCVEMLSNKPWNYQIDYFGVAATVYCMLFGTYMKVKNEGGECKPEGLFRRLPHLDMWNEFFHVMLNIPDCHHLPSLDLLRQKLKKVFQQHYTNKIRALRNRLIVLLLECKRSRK
How it was run: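 Readout is the 665/620 nm TR-FRET ratio from anti-phosphoserine antibody, Eu-labelled anti-mouse IgG and streptavidin-XL665, scaled between no-enzyme and uninhibited controls. Reaction: 1 μM biotinylated peptide, 10 μM ATP, 60 min, 22 °C, after 15 min compound preincubation with His6-Bub1 (704-1085, insect-expressed, ~200 ng/ml).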

Cc1nsc(Nc2cncc(C(F)(F)F)n2)c1C(=O)Nc1ccc(OCCN)nc1 [Example 196, N-[6-(2-aminoethoxy)pyridin-3-yl]-3-methyl-5-{[6-(trifluoromethyl)pyrazin-2-yl]amino}-1,2-thiazole-4-carboxamide]
pIC50 [1]: 5.89
pIC50 [2]: < 4.70

Cc1nsc(Nc2cnc(C(F)(F)F)cn2)c1C(=O)Nc1ccc(OCCN)nc1 [Example 197, N-[6-(2-aminoethoxy)pyridin-3-yl]-3-methyl-5-{[5-(trifluoromethyl)pyrazin-2-yl]amino}-1,2-thiazole-4-carboxamide]
pIC50 [1]: 6.00
pIC50 [2]: 5.04

Cc1nsc(Nc2cnc3ccccc3n2)c1C(=O)Nc1ccc(OCCC(=O)OC(C)(C)C)nc1 [Example 198, tert-butyl 3-{[5-({[3-methyl-5-(quinoxalin-2-ylamino)-1,2-thiazol-4-yl]carbonyl}amino)pyridin-2-yl]oxy}propanoate]
pIC50 [1]: 6.00
pIC50 [2]: < 4.70

Cc1nsc(Nc2ccc(C#N)cn2)c1C(=O)Nc1ccc(OCCC(=O)OC(C)(C)C)nc1 [Example 199, tert-butyl 3-({5-[({5-[(5-cyanopyridin-2-yl)amino]-3-methyl-1,2-thiazol-4-yl}carbonyl)amino]pyridin-2-yl}oxy)propanoate]
pIC50 [1]: 6.02
pIC50 [2]: < 4.70

Cc1nsc(Nc2cc(C#N)ccn2)c1C(=O)Nc1ccc(OCCC(=O)OC(C)(C)C)nc1 [Example 200, tert-butyl 3-({5-[({5-[(4-cyanopyridin-2-yl)amino]-3-methyl-1,2-thiazol-4-yl}carbonyl)amino]pyridin-2-yl}oxy)propanoate]
pIC50 [1]: 6.34
pIC50 [2]: < 4.70

Cc1nsc(Nc2cnc3ccccc3n2)c1C(=O)Nc1ccc(C(N)=O)c(F)c1 [Example 201, N-(4-carbamoyl-3-fluorophenyl)-3-methyl-5-(quinoxalin-2-ylamino)-1,2-thiazole-4-carboxamide]
pIC50 [1]: 6.28
pIC50 [2]: < 4.70

Cc1nsc(Nc2cnc3ccccc3n2)c1C(=O)Nc1ccc(F)c(C(N)=O)c1 [Example 202, N-(3-carbamoyl-4-fluorophenyl)-3-methyl-5-(quinoxalin-2-ylamino)-1,2-thiazole-4-carboxamide]
pIC50 [1]: 6.66
pIC50 [2]: < 4.70

Cc1nsc(Nc2ccc(C#N)cn2)c1C(=O)Nc1ccc(F)c(C(N)=O)c1 [Example 203, N-(3-carbamoyl-4-fluorophenyl)-5-[(5-cyanopyridin-2-yl)amino]-3-methyl-1,2-thiazole-4-carboxamide]
pIC50 [1]: 5.89
pIC50 [2]: < 4.70

Cc1nsc(Nc2cncc(C(F)(F)F)n2)c1C(=O)Nc1ccc(F)c(C(N)=O)c1 [Example 204, N-(3-carbamoyl-4-fluorophenyl)-3-methyl-5-{[6-(trifluoromethyl)pyrazin-2-yl]amino}-1,2-thiazole-4-carboxamide]
pIC50 [1]: 6.31
pIC50 [2]: < 4.70 and 4.80

CC(=O)Nc1cc(NC(=O)c2c(C)nsc2Nc2cnccn2)ccc1F [Example 205, N-(3-acetamido-4-fluorophenyl)-3-methyl-5-(pyrazin-2-ylamino)-1,2-thiazole-4-carboxamide]
pIC50 [1]: 5.22
pIC50 [2]: < 4.70

CC(=O)Nc1cc(NC(=O)c2c(C)nsc2Nc2cnc(C(F)(F)F)cn2)ccc1F [Example 206, N-(3-acetamido-4-fluorophenyl)-3-methyl-5-{[5-(trifluoromethyl)pyrazin-2-yl]amino}-1,2-thiazole-4-carboxamide]
pIC50 [1]: 6.96
pIC50 [2]: 4.89

CNC(=O)c1ccc(NC(=O)c2c(C)nsc2Nc2cnc3ccccc3n2)cc1F [Example 207, N-[3-fluoro-4-(methylcarbamoyl)phenyl]-3-methyl-5-(quinoxalin-2-ylamino)-1,2-thiazole-4-carboxamide]
pIC50 [1]: 6.70
pIC50 [2]: < 4.70

CNC(=O)c1ccc(NC(=O)c2c(C)nsc2Nc2ccc(C#N)cn2)cc1F [Example 208, 5-[(5-cyanopyridin-2-yl)amino]-N-[3-fluoro-4-(methylcarbamoyl)phenyl]-3-methyl-1,2-thiazole-4-carboxamide]
pIC50 [1]: 6.48
pIC50 [2]: < 4.70

Cc1nsc(Nc2cncc(C(F)(F)F)n2)c1C(=O)Nc1ccc(OCCCN)nc1 [Example 209, N-[6-(3-aminopropoxy)pyridin-3-yl]-3-methyl-5-{[6-(trifluoromethyl)pyrazin-2-yl]amino}-1,2-thiazole-4-carboxamide]
pIC50 [1]: 5.68
pIC50 [2]: < 4.70

CNS(=O)(=O)c1ccc(NC(=O)c2c(C)nsc2Nc2cc(C#N)ccn2)cc1 [Example 210, 5-[(4-cyanopyridin-2-yl)amino]-3-methyl-N-[4-(methylsulfamoyl)phenyl]-1,2-thiazole-4-carboxamide]
pIC50 [1]: 5.49
pIC50 [2]: < 4.70

CNS(=O)(=O)c1ccc(NC(=O)c2c(C)nsc2Nc2cncc(C(F)(F)F)n2)cc1 [Example 211, 3-methyl-N-[4-(methylsulfamoyl)phenyl]-5-{[6-(trifluoromethyl)pyrazin-2-yl]amino}-1,2-thiazole-4-carboxamide]
pIC50 [1]: 7.02
pIC50 [2]: 5.37

CNS(=O)(=O)c1ccc(NC(=O)c2c(C)nsc2Nc2cnc(C(F)(F)F)cn2)cc1 [Example 212, 3-methyl-N-[4-(methylsulfamoyl)phenyl]-5-{[5-(trifluoromethyl)pyrazin-2-yl]amino}-1,2-thiazole-4-carboxamide]
pIC50 [1]: 5.70
pIC50 [2]: < 4.70

Cc1nsc(Nc2cnc(C(F)(F)F)cn2)c1C(=O)Nc1ccc(C(=O)NCCN2CCCC(F)C2)cc1 (centres unmarked) [Example 213, N-(4-{[2-(3-fluoropiperidin-1-yl)ethyl]carbamoyl}phenyl)-3-methyl-5-{[5-(trifluoromethyl)pyrazin-2-yl]amino}-1,2-thiazole-4-carboxamide]
pIC50 [1]: 5.57
pIC50 [2]: 4.77

Cc1nsc(Nc2cncc(C(F)(F)F)n2)c1C(=O)Nc1ccc(C(=O)NCCN2CCCC(F)(F)C2)cc1 [Example 214, N-(4-{[2-(3,3-difluoropiperidin-1-yl)ethyl]carbamoyl}phenyl)-3-methyl-5-{[6-(trifluoromethyl)pyrazin-2-yl]amino}-1,2-thiazole-4-carboxamide]
pIC50 [1]: 6.49
pIC50 [2]: < 4.70

Cc1nsc(Nc2cnc(C(F)(F)F)cn2)c1C(=O)Nc1ccc(OCCNC(=O)OC(C)(C)C)c(F)c1 [Example 215, tert-butyl [2-(2-fluoro-4-{[(3-methyl-5-{[5-(trifluoromethyl)pyrazin-2-yl]amino}-1,2-thiazol-4-yl)carbonyl]amino}phenoxy)ethyl]carbamate]
pIC50 [1]: 6.68
pIC50 [2]: < 4.70

Cc1nsc(Nc2cncc(C(F)(F)F)n2)c1C(=O)Nc1ccc(OCCNC(=O)OC(C)(C)C)c(F)c1 [Example 216, tert-butyl [2-(2-fluoro-4-{[(3-methyl-5-{[6-(trifluoromethyl)pyrazin-2-yl]amino}-1,2-thiazol-4-yl)carbonyl]amino}phenoxy)ethyl]carbamate]
pIC50 [1]: 6.85
pIC50 [2]: < 4.70

Cc1nsc(Nc2cnc(C(F)(F)F)cn2)c1C(=O)Nc1ccc(OC2CCN(C(=O)OC(C)(C)C)CC2)c(F)c1 [Example 217, tert-butyl 4-(2-fluoro-4-{[(3-methyl-5-{[5-(trifluoromethyl)pyrazin-2-yl]amino}-1,2-thiazol-4-yl)carbonyl]amino}phenoxy)piperidine-1-carboxylate]
pIC50 [1]: 6.07
pIC50 [2]: < 4.70

Cc1nsc(Nc2cncc(C(F)(F)F)n2)c1C(=O)Nc1ccc(OC2CCN(C(C)C)CC2)nc1 [Example 218, N-{6-[(1-isopropylpiperidin-4-yl)oxy]pyridin-3-yl}-3-methyl-5-{[6-(trifluoromethyl)pyrazin-2-yl]amino}-1,2-thiazole-4-carboxamide]
pIC50 [1]: 6.42
pIC50 [2]: < 4.70

Cc1nsc(Nc2cncc(C(F)(F)F)n2)c1C(=O)Nc1ccc(OC2CCN(C)CC2)nc1 [Example 219, 3-methyl-N-{6-[(1-methylpiperidin-4-yl)oxy]pyridin-3-yl}-5-{[6-(trifluoromethyl)pyrazin-2-yl]amino}-1,2-thiazole-4-carboxamide]
pIC50 [1]: 6.04
pIC50 [2]: < 4.70

Cc1nsc(Nc2cnc(C(F)(F)F)cn2)c1C(=O)Nc1ccc(OC2CCN(C)CC2)nc1 [Example 220, 3-methyl-N-{6-[(1-methylpiperidin-4-yl)oxy]pyridin-3-yl}-5-{[5-(trifluoromethyl)pyrazin-2-yl]amino}-1,2-thiazole-4-carboxamide]
pIC50 [1]: 5.96
pIC50 [2]: < 4.70

Cc1nsc(Nc2cnc(C(F)(F)F)cn2)c1C(=O)Nc1ccc(OCCN)c(F)c1 [Example 221, 3-N-[4-(2-aminoethoxy)-3-fluorophenyl]-3-methyl-5-{[5-(trifluoromethyl)pyrazin-2-yl]amino}-1,2-thiazole-4-carboxamide]
pIC50 [1]: 7.04
pIC50 [2]: < 4.70

Cc1nsc(Nc2cncc(C(F)(F)F)n2)c1C(=O)Nc1ccc(C(=O)NC2CCN(C(=O)OC(C)(C)C)CC2)cc1 [Example 222, tert-butyl 4-[(4-{[(3-methyl-5-{[6-(trifluoromethyl)pyrazin-2-yl]amino}-1,2-thiazol-4-yl)carbonyl]amino}benzoyl)amino] piperidine-1-carboxylate]
pIC50 [1]: 6.11
pIC50 [2]: < 4.70

Cc1nsc(Nc2cncc(C(F)(F)F)n2)c1C(=O)Nc1ccc(OC2CCN(CCF)CC2)c(F)c1 [Example 223, N-(3-fluoro-4-{[1-(2-fluoroethyl)piperidin-4-yl]oxy}phenyl)-3-methyl-5-{[6-(trifluoromethyl)pyrazin-2-yl]amino}-1,2-thiazole-4-carboxamide]
pIC50 [1]: 6.74
pIC50 [2]: < 4.70
